Measurements as given in BigSolDB 2.1.

Cc1cnc(NC(=O)C2=C(O)c3ccccc3S(=O)(=O)N2C)s1
Settings	solubility (mole fraction)
in PEG-400, 298.15 K	0.00932
in PEG-400, 303.15 K	0.0096
in PEG-400, 308.15 K	0.0101
in PEG-400, 313.15 K	0.0104
in PEG-400, 318.15 K	0.0106

in water
Settings	solubility (mole fraction)
298.15 K	4.24e-07
303.15 K	6.28e-07
308.15 K	9.48e-07
313.15 K	1.34e-06
318.15 K	1.93e-06
